Experimental data from US8871741B2, “Inhibition of TNF-α induced activation of NFKB by pentosan polysulfate” (Icahn School of Medicine at Mount Sinai, priority 2010, dated 2014).
Like-named read-outs stand apart in the source and are kept apart here.

Assays:
proximal tubular cells = conditions: for cell death: wild type proximal tubular cells, 24 hours
Description: To determine if CHOP played a role in ER stress induced renal cell death, primary proximal tubular cells were isolated from 2 month-old CHOP^−/− and wild type mice using a method described by Sheridan et al. (Am J Physiol 1993, 265:F342-350). Briefly, kidneys were perfused with a phosphate buffer solution and dynabead M-450 (5×10^5 beads/ml, Invitrogen, LA, CA). Cortices were then cut to small pieces and incubated with 0.1% collagenase and 100 u/ml DNase at 37° C. for 40 minutes. After pressing tissues through a 100 μm cell strainer (BD Biosciences, Bedford, Mass.) with a syringe plunger, glomeruli were removed by a magnetic concentrator. The remaining tissues were collected with a 40 μm cell strainer, washed and cultured with medium containing DMEM/F12 (1:1), 5 μg/ml transferrin, 5 μg/ml insulin, 50 nM hydrocortisone, 5% FBS, 100 u/ml each of penicillin and streptomycin. […] […] 24 hours later, cells were gently washed and stained with trypan blue, the number of live cells from each well was counted.

[1] = system: MCP-1, RANTES, CXCL1, MIP-2, ICAM-1, and iNOS mRNA; experiment: TNFα induced pro-inflammatory gene expression in proximal tubular cell line, real-time PCR; assay type: cell-based, mouse; conditions: TNFα 10 ng/ml, 4 hours, control defined as 1
Description: A proximal tubular cell line obtained from mice transgenic for SV40 T antigen was grown in DMEM containing 10% FBS. For the measurement of TNFα-stimulated gene expression, 1×10^5 proximal tubular cells were transferred to each well of a 6-well-plate. After placing the cells in 0.1% FBS medium for 24 hours, 10 ng/ml of TNFα was added to test wells. Total RNA was isolated from all wells 4 hours later. MCP-1, RANTES, CXCL1, MIP-2, ICAM-1, and iNOS mRNA levels were determined by real-time PCR as described above and corrected by β-actin mRNA levels. TNFα stimulated MCP-1 and RANTES production and release into the medium was measured in TNFα (10 ng/ml) treated and control cells at 24 hours. The amount of MCP-1 or RANTES in the medium was measured by ELISA (Invitrogen Corporation (Carlsband, Calif.).
To determine the effect of PPS on TNFα induced upregulation of proinflammatory genes, proximal tubular cells were pre-treated with PPS (200 μg/ml) for 1 hour before the addition of TNFα (10 ng/ml). MCP-1, RANTES, CXCL1, MIP-2, ICAM-1, and iNOS mRNA levels were determined 4 hours later by real-time PCR. MCP-1 and RANTES production was also measured.

podocytes = experiment: Albumin permeability of podocyte monolayers (FITC-labeled BSA flux); assay type: cell-based; conditions: 2 hours after TNFα treatment (20 ng/ml)
Description: 1×10^5 podocytes were seeded onto collagen-coated transwell filters ([…] pore-size, Corning, N.Y., N.Y.) placed in the top chamber of each well of a 24-well plate. After cells reached confluence, some wells of cells were treated with TNFα (20 ng/ml), PPS (400 μg/ml), or PPS plus TNFα in 2% FBS medium for 8 hours. Then the medium from both the top and bottom chamber was completely removed, cells were washed twice with PBS and the top chamber was refilled with 0.2 ml 2% FBS medium supplemented with 0.5 mg/ml FITC-labeled BSA (Sigma Aldrich, St Louis, […].), while the bottom chamber was refilled with 0.6 ml 2% FBS medium supplemented with 0.5 mg/ml unlabeled BSA. At different time points, 100 μl aliquots were collected from the bottom chamber and fluorescence was measured by a fluorescence spectrophotometer (485 nm excitation, 535 nm emission). The concentration of FITC-BSA passing through the monolayer was determined by reference to a set of standard dilutions of FITC-BSA. The value of albumin flux through untreated monolayer was arbitrarily defined as 100%.

MMP-2 = experiment: Zymography of U937 cell supernatants, MMP-2; assay type: cell-based, human; conditions: U937 cells, heparin 100 μg/ml
Description: Human pro-monocytic U937 cells were obtained from American Type Culture Collection (Manassas, Va.) and grown in RPMI medium supplemented with 10% FBS. U937 cells were plated in six-well plates at a density of 5×10^6 cells/ml. The cells were then stimulated with 10 ng/ml TNF-α, in the presence or absence of either increasing concentrations of PPS (10-100 μg/ml) or heparin (100 μg/ml), and incubated at 37° C. for 3 hours. Following stimulation, cells were placed in 0.1% BSA-serum-free medium for 16-18 hours. The media was then collected, centrifuged, and supernatants were stored at −80° C. for the assessment of MMP activity. The cell number was determined by direct cell counting.
MMP activity in aortic extracts and conditioned media from monocytes was assessed, as previously described (Jacot T A, et al., Lab Invest. 1996; 75:791-79). Briefly, aortic segments were homogenized and extracted in RIPA buffer (25 mM Tris, pH 7.4, 150 mM KCl, 5 mM EDTA, 1% Nonidet P-40, 0.5% sodium deoxycholate, and 0.1% SDS). Insoluble material was precipitated by centrifugation, and soluble extracts were collected and stored at −20° C. for further analysis. For in vitro experiments, cell supernatants were centrifuged to remove cellular debris, and diluted appropriately to normalize for cell number. Aortic extracts and conditioned media were then mixed with sample buffer (1% SDS, 0.08 M Tris pH 6.8, 4% glycerol, and 0.006% bromophenol blue), and loaded onto a 10% gelatin polyacrylamide gel, and processed as described (Jacot T A, et al., Lab Invest. 1996; 75:791-79). For reverse zymography, samples were loaded onto a 15% gelatin polyacrylamide gel containing 0.5% porcine gelatin and 6 μg recombinant gelatinase A, and processed as described (Elliot S J, et al., J Am Soc Nephrol. 1999; 10: 62-68).

## OO [H2O2, hydrogen peroxide]
Proximal tubular cells
  apoptotic cell death: dose dependent increase

## TNFα
[1]
  fold increase in mRNA expression of MCP-1, RANTES, CXCL-1, MIP-2, ICAM-1 and iNOS: 2-9 fold
podocytes
  increase in the amount of FITC-labeled albumin that passed through a monolayer of podocytes: 34%

## heparin
MMP-2
  effect of heparin treatment on MMP-2 activity compared with the PPS effect: comparable

## tunicamycin
Proximal tubular cells; proximal tubular cells exposed to inducers of oxidative stress or ER stress
  apoptotic cell death: dose dependent increase
Proximal tubular cells; 0.6 μg/ml of tunicamycin
  cell death: 38%
Proximal tubular cells; 1.2 μg/ml of tunicamycin
  cell death: 89%
